{"source": "paper PMC9611166", "about": "“Cocrystal Prediction of Bexarotene by Graph Convolution Network and Bioavailability Improvement” (Pharmaceutics, 2022)", "key": {"[1]": {"test": "Equilibrium solubility in buffer solutions with 0.05% CTAB", "type": "physicochemical", "conditions": "for solubility thermodynamic at 1 day: buffer solution with 0.05% CTAB, aqueous with cosolvent or surfactant or cyclodextrin, thermodynamic from solid, 0.05% CTAB, 37 °C, one day", "experimental": "(§1) The concentration of BEX samples was detected by the Agilent 1260 Series Infinite HPLC. The Eclipse XDB-C18 column (4.6 × 150 mm, 5 μm) was used to separate the analytes. The column temperature was set at 30 °C and the injection volume was 10 μL. The mobile phase was composed of 0.1% trifluoroacetic acid in water and acetonitrile (10:90, v/v) pumped at 1.0 mL/min. The 260 nm was set as the UV-vis detection wavelength.\nExcess amounts (10 mg) of BEX and four cocrystals samples were added to the 4 mL of pH 2.0, 4.5, and 6.8 buffer solutions respectively, with the presence of 0.05% CTAB (hexadecyl trimethyl ammonium bromide). Then the saturated solutions were stirred at 300 rpm for one day at 37 °C. The equilibrium solubility of BEX was determined by HPLC after filtering the solutions."}, "[2]": {"test": "Powder dissolution at pH 6.8 with 0.05% CTAB", "type": "physicochemical", "experimental": "as §1\nThe solid samples of BEX and four cocrystals were sieved through 100-mesh sieves. In total, 20 mg of BEX and corresponding cocrystal powders (n = 3) were added to pH 6.8 phosphate buffer with the presence of 0.05% CTAB at 37 °C, rotating at 100 rpm. The samples were collected at 5, 10, 15, 20, 30, 40, 50, and 60 min. The concentration was measured by HPLC."}, "Pharmacokinetics in rats": {"test": "Pharmacokinetics in rats", "type": "in vivo", "conditions": "male, Sprague-Dawley, rat, plasma, po, 10 mg/kg BEX, 0.5% CMC-Na suspension, mean ± SD", "experimental": "The PK studies were performed according to the Guide for Care and Use of Laboratory Animals and were approved by the Institutional Animal Care and Use Committee of Shanghai Institute of Materia Medica. There were two groups of male Sprague−Dawley rats and the number of rats is six in each group. […] The dose is 10 mg/kg BEX. The animals had free access to water and fasted overnight before dosing. After the administration, the 600 μL blood sample was collected at 0.5, 1, 2, 3, 4, 6, and 8 h. Plasma was separated by centrifugation (14,000 rpm, 10 min) and stored at −80 °C. In total, 200 μL of rat plasma sample was mixed with 600 μL acetonitrile through a vortex mixer for 20 min and centrifuged for 5 min (14,000 rpm). The BEX concentration was measured by the SCIEX Triple Quad™ 4500 LC-MS instrument. The analytes were separated by the Supelco Ascentis Express C18 column (2.1 × 50 mm, 2.7 μm). The column temperature was set at 35 °C. The mobile phase was composed of 0.2% formic acid in water (solvent A) and acetonitrile (solvent B) pumped at 0.6 mL/min. The gradient elution program started with 55% B and increased linearly to 90% B at 1.5 min and held for 0.5 min. It returned to the 55% B at the 3 min and held for 2 min. The injection volume was 10 μL, and the UV-vis detection wavelength was set at 260 nm. The negative ion detection mode was operated in the mass spectrometer. Multiple reaction monitoring modes (MRM) was used to perform the detection and quantification, with m/z 347.3→303.0 for BEX. The DAS 2.0 program was used to perform the PK analysis."}, "[3]": {"design": "method as in PMID 24333772", "conditions": "cited from earlier work"}}, "data": [{"smiles": "C=C(c1ccc(C(=O)O)cc1)c1cc2c(cc1C)C(C)(C)CCC2(C)C", "note": "[BEX, Bexarotene]", "values": [{"measurement": "solubility thermodynamic at 1 day", "setting": "[1]; pH 2.0 buffer", "result": "< 10", "unit": "µg/mL"}, {"measurement": "solubility thermodynamic at 1 day", "setting": "[1]; pH 4.5 buffer", "result": "> 10", "unit": "µg/mL"}, {"measurement": "solubility thermodynamic at 1 day", "setting": "[1]; pH 6.8 buffer", "result": "~30", "unit": "µg/mL"}, {"measurement": "pH value of solution after equilibrium solubility experiment", "setting": "[1]; starting buffer pH 2.00, n = 3", "result": "2.06 ± 0.01"}, {"measurement": "pH value of solution after equilibrium solubility experiment", "setting": "[1]; starting buffer pH 4.50, n = 3", "result": "4.58 ± 0.01"}, {"measurement": "pH value of solution after equilibrium solubility experiment", "setting": "[1]; starting buffer pH 6.80, n = 3", "result": "6.82 ± 0.02"}, {"measurement": "pH value of solution after powder dissolution", "setting": "[2]; pH 6.8, n = 3", "result": "6.81 ± 0.01"}, {"measurement": "solubility at 60 min", "setting": "[2]; phosphate buffer with 0.05% CTAB, aqueous with cosolvent or surfactant or cyclodextrin, thermodynamic from solid, pH 6.8 phosphate buffer, 0.05% CTAB, 37 °C, 60 min, read-out: measured solubility in powder dissolution after 60 min", "result": "~30", "unit": "µg/mL"}, {"measurement": "AUC(0-inf)", "setting": "Pharmacokinetics in rats", "result": "8790 ± 1080", "unit": "ng·h/mL"}, {"measurement": "Cmax", "setting": "Pharmacokinetics in rats", "result": "1680 ± 559", "unit": "ng/mL"}, {"measurement": "half-life", "setting": "Pharmacokinetics in rats", "result": "2.98 ± 1.18", "unit": "h"}, {"measurement": "AUC(0-t)", "setting": "Pharmacokinetics in rats; read-out: AUC0−8h", "result": "7220 ± 811", "unit": "ng·h/mL"}, {"measurement": "absolute bioavailability", "setting": "[3]", "result": "less than 20%"}]}]}
